Results on three compounds are retold here after patent US11124847B1, “Systems and methods for assessing perturbations in cellular differentiation using reporter cell lines” (priority 2017, dated 2021).

Each structure is given as a SMILES string.

The subject of this assay is hNPC. The assay can be described thus: Immunofluorescence staining and high-content cell analysis of differentiation markers in hNPCs differentiated after 24 hour neurotoxin treatment. The format is cell-based, human. As to conditions: for level of GFAP (glial marker): hNPC treated 24 hours. The source says: In an example, high-content cell analysis from cells grown in each well in a 96-well plate was sufficient to detect multiple markers via antibody staining and to be normalized to the DAPI signal, a common baseline measure of DNA content. […] In this example, hNPC are indicated by NESTIN (NES) and SRY-Box 2 (SOX2). Glial Fibrillary Acidic Protein (GFAP) is used as a marker of glial cells (both astrocytes and radial glia), and the neuron-specific class III β-tubulin (TUJ1) is used to indicate neurons. Expression of both GFAP and TUJ1 increased at 21 days and 50 days following differentiation, while both SOX2 and NES decreased at 21 days. Levels of SOX2 expression returned to baseline following 50 days.
A broad range of doses for each toxin was selected to determine the dose response and capture the full range to which a developing human brain may be exposed. Cultured hNPC's were treated for 24 hours to avoid complications associated with non-specific toxicity that may occur with chronic treatment, and because we were interested in whether early, acute exposure produces long-term effects detectable in our assay.

In the case of `CC(C)(c1ccc(O)cc1)c1ccc(O)cc1` [BPA, bisphenol A], the “level of GFAP (glial marker)” value (21D time point, low to moderate doses) is “increase” and the “level of GFAP (glial marker)” value (50D time point, low to moderate doses) is reported as “increase”.

On to `C[N+]([O-])=NCO` [MAM, methylazoxymethanol], for which the “level of GFAP (glial marker)” value reads like this: (21D time point, increasing doses, vs DMSO control) “striking increase”; (50D time point, vs DMSO control) “general decrease”. Moreover, under “24 hours, across doses”, the “hNPC markers (NESTIN and SOX2)” value is reported as “clear dose-dependent increase”. The “hNPC-GLIA population (markers of hNPC and glial cells)” value (21 days, across increasing doses) is “significant increase”; the “hNPC-GLIA population (markers of hNPC and glial cells)” value (50 days) is given as “decreased”. Moreover, the “neuronal population (NEURON)” value runs as follows: (21 days, as a function of increasing dose) “striking decrease”; (50 days) “increased”.

Turning to `CCCC(CCC)C(=O)O` [VPA, valproic acid], the “level of GFAP (glial marker)” value (across differentiation time points, compared with MAM and BPA) is “more modest effects”.
